Measured values from patent US20220401438A1, “CANCER THERAPEUTIC METHODS” (University Health Network, priority 2021, published 2022).

What was measured:
[1] = system: cancer cell lines not having gene mutations identified by the CRISPR screen analysis; assay: In vitro combination of itraconazole with lysosome targeting agents; format: cell-based; conditions: for sensitivity of cell lines to itraconazole when treated with the agent: cell lines without the CRISPR-identified mutations
[2] = Tissue pharmacokinetic analyses (HPLC-MS/MS) of tumour biopsies; format: in vivo, human; conditions: for intratumor concentration (highest): patient HYDRA-005, DL1, on-treatment biopsy; for estimated tissue concentration: patient HYDRA-005 for Itra, assuming 1 μg of tissue corresponds to 1 μl; for detection in tumour biopsies: post-treatment samples, ten patients, none of the pre-treatment samples
Description: Tumour assessment occurred every 8 weeks (+/−1 week) by CT scan. Toxicity was assessed by Common Terminology Criteria (CTCAE) version 4.0. Pre- and on treatment biopsies (on cycle 1, day 8 to 14) were mandatory. Tumour Itra and HCQ concentrations were determined by a HPLC-MS/MS method with itraconazole-D9 and hydroxychloroquine-D4 as the internal standard. The HPLC system was interfaced to a SCIEX TRIPLE QUAD 6500+ mass spectrometer operating in the […] electrospray ionization mode. Data collection, peak integration, and calculation were performed using Analyst® 1.7 software.

[3] = system: TOV1946 stably expressing GFP conjugated TFEB; assay: TFEB nuclear translocation; format: cell-based; conditions: CQ 10 μM alone or with Itra 5 μM
Description: FIGS. 11A-B. FIG. 11A) Top, analysis of lysosomal pattern by LAMP1 immunofluorescence and relative quantification in TOV21g treated with Itra 5 μM (15)+/−CQ 5 μM (CQ5). Bottom, Analysis of lysosomal function and relative quantification in TOV21g treated as above. FIG. 11B) Analysis and quantification of TFEB nuclear translocation in TOV1946 stably expressing GFP conjugated TFEB and treated with Itra 5 μM (5) +/−CQ 10 μM (CQ10).
Member of the microphtalmia (MiT) family (TFEB, […], TFE3) are transcription factors activated in starvation or lysosomal dysfunction conditions. Once activated, they translocate to the nucleus where they promote the expression of a network of genes related to lysosomal function and biogenesis^50.

intratumor concentration (highest) [2] | estimated tissue concentration [2] | detection in tumour biopsies [2] | Structure (SMILES) | sensitivity of cell lines to itraconazole when treated with the agent [1] | other results
– | – | – | CC/C(=C(\c1ccccc1)c1ccc(OCCN(C)C)cc1)c1ccccc1 [tamoxifen] | increased sensitivity to itraconazole | –
– | – | – | CO/C1=C\C(C)=C\[C@@H](C)[C@@H](O)[C@@H](C)C/C(C)=C/C=C/[C@H](OC)[C@@H]([C@@H](C)[C@@H](O)[C@H](C)[C@@]2(O)C[C@@H](O)[C@H](C)[C@@H](C(C)C)O2)OC1=O [Bafilomycin A] | increased sensitivity to itraconazole | effect of Itra combined with lysosome targeting agent ([1]; data not shown): combined effect
0.745 ng/mg of tissue | ≤ 1 µM | detectable in all patients | CCC(C)n1ncn(-c2ccc(N3CCN(c4ccc(OCC5COC(Cn6cncn6)(c6ccc(Cl)cc6Cl)O5)cc4)CC3)cc2)c1=O (stereo not shown) [Itra, Itraconazole] | – | –
3.5 ng/mg of tissue | 5 to 10 µM | detectable in all patients | CCN(CCO)CCCC(C)Nc1ccnc2cc(Cl)ccc12 (stereo not shown) [HCQ, hydroxychloroquine] | – | –
– | – | – | CCN(CC)CCCC(C)Nc1ccnc2cc(Cl)ccc12 (stereo not shown) [CQ, chloroquine] | – | TFEB nuclear translocation, cells [3]: about 50%
